# According to BindingDB's records for doi:10.1021/jm00077a015 (Universität Regensburg, 1994):
# Molecular target: lipid peroxidation in brain phospholipid liposomes (Bos taurus)
# Assay: Tested for the inhibition of lipid peroxidation in bovine brain phospholipid liposomes
row,IC50 [µM],SMILES
1,8,"O=C1c2c(O)cccc2C(=Cc2ccccc2)c2cccc(O)c21 [10-benzylidene-1,8-dihydroxyanthracen-9(10H)-one]"
2,2,"O=C1c2c(O)cccc2C(=Cc2ccc(O)c(O)c2)c2cccc(O)c21 [10-(3,4-dihydroxybenzylidene)-1,8-dihydroxyanthracen-9(10H)-one]"
3,2,"O=C1c2c(O)cccc2C(=Cc2cc(O)c(O)c(O)c2)c2cccc(O)c21 [1,8-Dihydroxy-10-(3,4,5-trihydroxy-benzylidene)-10H-anthracen-9-one]"
4,1,"O=C1c2c(O)cccc2C(C(=O)Cc2ccc(O)c(O)c2)c2cccc(O)c21 [10-[2-(3,4-Dihydroxy-phenyl)-acetyl]-1,8-dihydroxy-10H-anthracen-9-one]"
5,4,"CCCC(=O)C1c2cccc(O)c2C(=O)c2c(O)cccc21 [10-Butyryl-1,8-dihydroxy-10H-anthracen-9-one(Butantrone)]"
6,14,"O=C1c2c(O)cccc2C(=Cc2ccc([N+](=O)[O-])cc2)c2cccc(O)c21 [1,8-dihydroxy-10-(4-nitrobenzylidene)anthracen-9(10H)-one]"
7,8,"O=C1c2c(O)cccc2C(=Cc2ccc(O)cc2)c2cccc(O)c21 [1,8-Dihydroxy-10-(4-hydroxy-benzylidene)-10H-anthracen-9-one]"
